Data as given in ChEMBL document CHEMBL4418913, “Modulation of K2P channels” (2018).
Values belong to the molecule of their own block, whether it stands above or below them. Calls of active or inactive are those of the source. No cut-off for these calls is given here.

Tests used:
[1] = molecular target: T1, Potassium channel subfamily K member 2 (Homo sapiens) (UniProt O95069); test: Inhibition of K2P2.1 (unknown origin) expressed in Xenopus oocytes assessed as effect on channel currents at 100 to 500 uM at 40 mV holding potential by two-electrode voltage clamp assay; assay type: cell-based
T1 sequence (whole entry): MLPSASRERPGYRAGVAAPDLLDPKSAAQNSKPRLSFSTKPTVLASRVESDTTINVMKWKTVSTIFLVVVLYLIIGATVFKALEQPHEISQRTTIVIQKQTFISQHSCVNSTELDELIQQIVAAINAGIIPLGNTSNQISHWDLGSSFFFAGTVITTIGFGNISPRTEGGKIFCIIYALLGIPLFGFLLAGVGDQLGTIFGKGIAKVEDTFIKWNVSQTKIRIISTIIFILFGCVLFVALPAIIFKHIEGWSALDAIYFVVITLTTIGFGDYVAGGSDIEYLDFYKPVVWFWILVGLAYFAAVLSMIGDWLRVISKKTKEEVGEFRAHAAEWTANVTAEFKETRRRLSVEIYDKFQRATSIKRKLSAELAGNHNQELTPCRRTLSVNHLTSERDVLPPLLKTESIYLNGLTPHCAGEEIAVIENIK

[2] = system: Potassium channel subfamily K member 2 (Homo sapiens), O95069 [UNDEFINED MUTATION]; test: Activation of K2P2.1 W275S mutant (unknown origin) expressed in Xenopus oocytes assessed as effect on channel currents at 50 uM by two-electrode voltage clamp assay; assay type: cell-based
[3] = molecular target: T1, Potassium channel subfamily K member 2 (Homo sapiens); test: Reversible activation of K2P2.1 (unknown origin) expressed in HEK293T cells assessed as effect on channel currents at 10 uM at -80 mV holding potential by whole cell patch clamp assay relative to untreated control; assay type: cell-based
[4] = molecular target: T1, Potassium channel subfamily K member 2 (Homo sapiens); test: Reversible activation of K2P2.1 (unknown origin) expressed in HEK293T cells assessed as effect on channel currents at 5 to 20 uM by […] assay; assay type: cell-based
[5] = molecular target: T1, Potassium channel subfamily K member 2 (Homo sapiens); test: Activation of K2P2.1 (unknown origin) expressed in HEK293T cells outside out excised patches assessed as effect on channel currents at 20 uM at -40 mV holding potential by […] patch clamp assay relative to untreated control; assay type: cell-based
[6] = system: Potassium channel subfamily K member 2 (Homo sapiens), O95069 [UNDEFINED MUTATION]; test: Activation of K2P2.1 G137I mutant (unknown origin) expressed in Xenopus oocytes assessed as effect on channel currents at 50 uM by two-electrode voltage clamp assay; assay type: cell-based
[7] = molecular target: T1, Potassium channel subfamily K member 2 (Homo sapiens); test: Activation of K2P2.1 (unknown origin) expressed in Xenopus oocytes assessed as effect on channel currents at 50 uM in presence of 90 mM [K+]o-induced extracellular C-type gate stabilization by two-electrode voltage clamp assay; assay type: cell-based
[8] = molecular target: T1, Potassium channel subfamily K member 2 (Homo sapiens); test: Reversible activation of K2P2.1 (unknown origin) expressed in Xenopus oocytes assessed as effect on channel currents at 50 uM at -80 mV holding potential by two-electrode voltage clamp assay; assay type: cell-based
[9] = organism: Homo sapiens; test: Activation of K2P2.1 triple Glycine mutant (unknown origin) expressed in Xenopus oocytes assessed as effect on channel currents at 50 uM by two-electrode voltage clamp assay; assay type: cell-based
[10] = molecular target: T1, Potassium channel subfamily K member 2 (Homo sapiens); test: Activation of K2P2.1 (unknown origin) expressed in HEK293T cells inside out excised patches assessed as effect on channel currents at 20 uM at -40 mV holding potential by patch clamp assay relative to untreated control; assay type: cell-based
[11] = molecular target: T2, Potassium channel subfamily K member 4 (Homo sapiens) (UniProt Q9NYG8); test: Binding affinity to K2P4.1 (unknown origin) assessed as induction of protein cross linking and labelling at 1 to 200 uM following 254 nm UV light irradiation for 30 secs by SDS-PAGE analysis
T2 sequence (whole entry): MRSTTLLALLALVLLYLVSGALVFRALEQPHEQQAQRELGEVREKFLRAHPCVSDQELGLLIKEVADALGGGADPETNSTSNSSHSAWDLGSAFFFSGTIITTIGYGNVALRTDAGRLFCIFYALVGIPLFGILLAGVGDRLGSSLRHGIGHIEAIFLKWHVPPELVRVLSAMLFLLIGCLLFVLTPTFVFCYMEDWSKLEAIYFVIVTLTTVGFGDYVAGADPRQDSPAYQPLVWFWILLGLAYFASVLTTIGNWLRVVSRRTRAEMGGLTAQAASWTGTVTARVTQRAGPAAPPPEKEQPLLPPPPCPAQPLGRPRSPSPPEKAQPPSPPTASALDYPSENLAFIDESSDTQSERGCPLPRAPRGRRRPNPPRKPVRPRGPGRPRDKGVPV

[12] = molecular target: T1, Potassium channel subfamily K member 2 (Homo sapiens); test: Reversible modulatory activity at K2P2.1 (unknown origin) expressed in Xenopus oocytes assessed as effect on channel currents at 100 uM at -80 mV holding potential by two-electrode voltage clamp assay; assay type: cell-based
[13] = molecular target: T1, Potassium channel subfamily K member 2 (Homo sapiens); test: Activation of K2P2.1 (unknown origin) expressed in Xenopus oocytes assessed as effect on channel currents at 400 uM by two-electrode voltage clamp assay; assay type: cell-based
[14] = molecular target: T1, Potassium channel subfamily K member 2 (Homo sapiens); test: Activation of K2P2.1 (unknown origin) expressed in Xenopus oocytes assessed as effect on channel currents at -80 mV holding potential by two-electrode voltage clamp assay relative to untreated control; assay type: cell-based
[15] = molecular target: Potassium voltage-gated channel subfamily KQT member 2 (Homo sapiens) (UniProt O43526); test: Activation of Kv7.2 (unknown origin) expressed in Xenopus oocytes assessed as effect on channel currents by two-electrode voltage clamp assay; assay type: cell-based
Chain of Potassium voltage-gated channel subfamily KQT member 2 (Homo sapiens) (O43526 whole entry): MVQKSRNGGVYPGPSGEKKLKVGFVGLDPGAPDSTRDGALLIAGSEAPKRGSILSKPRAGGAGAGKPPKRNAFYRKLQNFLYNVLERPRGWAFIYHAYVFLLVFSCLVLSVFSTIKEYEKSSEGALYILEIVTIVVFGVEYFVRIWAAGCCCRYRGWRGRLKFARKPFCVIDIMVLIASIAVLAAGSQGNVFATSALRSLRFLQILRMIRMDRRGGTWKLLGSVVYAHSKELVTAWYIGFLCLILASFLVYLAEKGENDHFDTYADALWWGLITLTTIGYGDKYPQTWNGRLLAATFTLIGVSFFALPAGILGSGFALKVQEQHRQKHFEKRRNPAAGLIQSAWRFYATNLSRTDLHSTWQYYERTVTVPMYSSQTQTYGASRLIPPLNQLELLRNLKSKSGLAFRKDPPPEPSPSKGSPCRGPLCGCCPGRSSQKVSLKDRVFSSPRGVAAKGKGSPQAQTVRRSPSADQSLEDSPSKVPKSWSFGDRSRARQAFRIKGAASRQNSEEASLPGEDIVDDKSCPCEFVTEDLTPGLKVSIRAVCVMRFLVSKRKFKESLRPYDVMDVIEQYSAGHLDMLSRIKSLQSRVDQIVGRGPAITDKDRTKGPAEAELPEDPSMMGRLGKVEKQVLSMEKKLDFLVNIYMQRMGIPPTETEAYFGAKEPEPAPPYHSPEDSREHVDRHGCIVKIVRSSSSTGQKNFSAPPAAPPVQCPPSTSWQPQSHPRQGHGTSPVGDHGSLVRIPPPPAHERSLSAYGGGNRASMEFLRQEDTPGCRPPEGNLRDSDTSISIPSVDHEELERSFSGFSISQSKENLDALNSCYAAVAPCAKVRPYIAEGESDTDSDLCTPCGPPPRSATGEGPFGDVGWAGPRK

SMILES: CC1(C)c2cc(Cl)ccc2N(CCc2nnn[nH]2)c2ccc(Cl)cc21
- Activity [2]: inactive
- Activity [3]: Active
- Activity [4]: Active
- Activity [5]: Active
- Activity [6]: inactive
- Activity [7]: inactive
- Activity [8]: Active
- Activity [9]: inactive
- Activity [10]: Active

SMILES: C#Cc1ccc(S(=O)(=O)NC(=O)CCN2c3ccc(N=[N+]=[N-])cc3C3(CCCCC3)c3cc(N=[N+]=[N-])ccc32)cc1
- Activity [11]: Active

SMILES: Cc1cccc(-n2ncc3c(NCCc4ccccc4)ncnc32)c1
- Activity [12]: Active

SMILES: O=C(O)COc1ccc(C23CC4CC(CC(C4)C2)C3)cc1
- Activity [13]: Active

SMILES: O=C1S/C(=C/c2ccc(F)cc2)C(=O)N1CN1CCCCC1
- Activity [13]: Active

Next, values leading:

- inhibition [1]: Active
SMILES: Cc1sc(-n2cccc2)c(C(=O)NCc2ccc(Cl)cc2)c1C

- Emax [14]: 11
- Activity [12]: Active
- Activity [13]: Active
- Activity [15]: inactive
SMILES: O=C(O)CCn1c2ccc(Cl)cc2c2cc(Cl)ccc21
